Measured values: patent US20250049930A1, “PROTAC MOLECULES TARGETING FOXP3 AND USES THEREOF” (CEDARS-SINAI MEDICAL CENTER, priority 2022, published 2025)
Residues, ends and D or L forms follow the SMILES beside them. *: point of attachment. X1 = O=C1CCC(N2C(=O)c3cccc(*)c3C2=O)C(=O)N1; PEG4 = NCCOCCOCCOCCOCCC(=O)O

Biological target: T1, FoxP3 (Mus musculus, UniProt Q99JB6)
T1 construct: from tissue; host or cells: peripheral blood and spleen of mice
T1 sequence (Q99JB6 1-429): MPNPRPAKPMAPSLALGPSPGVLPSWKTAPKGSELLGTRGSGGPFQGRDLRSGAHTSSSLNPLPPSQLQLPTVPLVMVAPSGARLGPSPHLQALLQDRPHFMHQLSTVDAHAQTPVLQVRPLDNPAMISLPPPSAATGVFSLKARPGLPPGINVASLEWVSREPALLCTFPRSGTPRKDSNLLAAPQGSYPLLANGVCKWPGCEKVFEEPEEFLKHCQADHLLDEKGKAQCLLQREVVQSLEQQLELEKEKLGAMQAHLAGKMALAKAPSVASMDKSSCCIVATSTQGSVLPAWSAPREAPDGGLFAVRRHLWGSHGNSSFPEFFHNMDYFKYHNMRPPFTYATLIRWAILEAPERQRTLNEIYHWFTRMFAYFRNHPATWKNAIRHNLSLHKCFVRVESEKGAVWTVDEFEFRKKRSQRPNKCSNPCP
Assay: FoxP3 in CD4+ cells of mouse splenocytes treated in vitro, flow cytometry
Type: cell-based
Procedure: FIGS. 2A-2E depict that a proteolysis-targeting chimera (PROTAC) targeting FoxP3 (PF) degraded FoxP3 in vitro and in vivo. P-FoxP3 forms a ternary complex with cereblon and FoxP3. Surface plasmon resonance (SPR) assay was used to measure the equilibrium dissociation constant (KD) for the ternary complex consisting of cereblon, P-FoxP3 and FoxP3 (FIG. 2A). SPR assay was used to measure the KD for the binary complex consisting of cereblon and P-FoxP3 (FIG. 2B). Mouse splenocytes were treated in vitro with varying PF concentrations and percent of CD4+ cells staining for intracellular FoxP3 was assessed by flow cytometry. (FIG. 2C). […] 72 hours later, FoxP3 positive CD4+ cells in peripheral blood and spleen were assessed by flow cytometry (FIG. 2D). FoxP3 positive CD4+ cells in peripheral blood were assessed by flow cytometry at various timepoints following PF administration (FIG. 2E). […]
To determine if PF results in the degradation of FoxP3, mouse splenocytes were treated in vitro with varying concentrations of PF and percent of CD4+ cells staining for intracellular FoxP3 was assessed by flow cytometry. […] 72 hours later, FoxP3 positive CD4+ cells in peripheral blood and spleen were assessed by flow cytometry. […] To understand the time course of FoxP3 decrease, serial blood draws were assessed after a single injection of PF (FIG. 2E). […]

FoxP3 in CD4+ cells (fresh mouse splenocytes cultured with IL-2, 1 μm P-FoxP3, 7 days, vs without P-FoxP3): degraded FoxP3 in CD4+ cells
percent of CD4+ cells staining for intracellular FoxP3 (mouse splenocytes treated in vitro with varying PF concentrations): decreased in a dose-dependent manner
Structure (SMILES): CSCC[C@H](NC(=O)[C@H](C)NC(=O)[C@H](Cc1ccccc1)NC(=O)[C@H](Cc1ccccc1)NC(=O)[C@@H]1CCCN1C(=O)[C@H](Cc1c[nH]c2ccccc12)NC(=O)[C@H](CCSC)NC(=O)[C@H](CCCCN)NC(=O)[C@H](CCCNC(=N)N)NC(=O)[C@H](Cc1ccccc1)NC(=O)[C@H](CO)NC(=O)[C@H](CCC(N)=O)NC(=O)[C@H](Cc1ccccc1)NC(=O)[C@H](CC(=O)O)NC(=O)[C@H](CCCNC(=N)N)NC(=O)CCOCCOCCOCCOCCNc1cccc2c1C(=O)N(C1CCC(=O)NC1=O)C2=O)C(=O)O (some centres unmarked) [PF, Pomalidomide-PEG4-RDFQSFRKMWPFFAM] ({X1-PEG4}-RDFQSFRKMWPFFAM-OH)
